Results from patent publication US6716829B2, “Aldosterone antagonist and cyclooxygenase-2 inhibitor combination therapy to prevent or treat inflammation-related cardiovascular disorders” (Pharmacia Corporation, priority 2000, dated 2004).
Several values for one entry are separate records, joined by “and”; a condition that tells them apart may be missing. Equal values may be shown once. Entries after “also recorded” stand apart in the source; their conditions may differ.

Key:
[1] = test system: COX-2; experiment: Assay B: COX-2 mRNA in heart by quantitative RT-PCR (Taqman); type: in vivo, Male Sprague Dawley rats
Protocol: Assay B: In Vivo Aldosterone Infusion Model Male Sprague Dawley rats (n=39; BW=250 g) 2. Aldosterone ([…], sc via alzet minipump) 2. […] Hearts were harvested and divided by half through a transverse section at the mid-ventricles: The upper half was stored into formalin. The bottom part was snap-frozen in liquid nitrogen for biochemical analysis. Determination of osteopontin and COX-2 was performed by quantitative RT-PCR (Taqman). Osteopontin was also identified in the heart by immunohistochemistry.

[2] = test system: Atrial natriuretic factor (ANP); experiment: Assay C: ANP mRNA in left ventricle by TaqMan RT-PCR; type: in vivo, Male Sprague-Dawley rats; conditions: for ANP mRNA: arbitrary units relative to cyclophilin expression; for ANP mRNA (AU): mean ± SEM after 30 days of treatment, eplerenone dose 100 mg/kg/day, relative to cyclophilin expression
Protocol: (§1) The procedure of Assay B was expanded upon in a further study. […] Myocardial tissue from animals in each treatment group was examined after 7, 14, or 30 days of treatment.
(§2) Potassium chloride supplementation was added to the saline solution in order to prevent the potential hypokalemia associated with aldosterone excess.
(§3) At the time of the surgery, an Alzet 2002 osmotic minipump (Alza Corp., Palo Alto, Calif.) containing either vehicle (9% ethanol/87% propylene glycol/4% dH2O) or 1.0 mg/mL d-aldosterone (Sigma Chemical, St. Louis, Mo.) was inserted subcutaneously at the nape of the neck. Aldosterone was administered at a dose of 0.75 µg/hour. […] Animals were sacrificed from each group (n=8-13) after 7, 14, or 30 days of treatment.
Following exsanguination, hearts and kidneys were isolated, removed, rinsed in cold phosphate-buffered saline, and blotted dry. Kidneys were immediately bifurcated through the long axis with a razor blade and placed in 10% neutral buffered formalin (NBF, Richard-Allen Scientific, Kalamazoo, Mich.). For the hearts, the right ventricle (RV) was cut away from the left ventricle (LV), both ventricles were weighed using a Mettler AE163 balance (Mettler-Toledo, Inc., Hightstown, N.J.), and the RV was placed in 10% NBF. A 2 mm coronal slab of the LV apex was removed and frozen with dry ice/isopentane for analysis of gene expression and the remaining portion of the LV was placed in 10% NBF for fixation. Final wet trimming was completed after 3-4 days fixation where a second 2 mm coronal slab was removed for hydroxyproline analysis and a third 2 mm slab was removed from the equatorial region for histology.
(§4) The fluorogenic 5′-nuclease assay (TaqMan PCR) using Applied Biosystems' 7700 Sequence Detection System (Applied Biosystems, Foster City, Calif.) allowed for real time detection/quantitation of a specific gene by monitoring the increase in fluorescence of a gene-specific, dye-labeled oligonucleotide probe. Probes for target and reference genes were labeled at the 5′-end with a 6-carboxyfluorescein (6FAM) reporter dye and at the 3′-end with a 6-carboxy-N,N,N′,N′-tetramethylrhodamine (TAMRA) quencher dye. When the probe was annealed to the target gene, fluorescence of 6FAM was prevented by the close proximity of TAMRA. The exonuclease activity of Taq polymerase released the dyes from the oligonucleotide probe by displacing the probe from the target sequence resulting in fluorescence excitation in direct proportion to the amount of target message present. Data analysis was performed using the Sequence Detection System software from Applied Biosystems.
Primers and probes were designed using Oligo Primer Analysis Software, Version 5.0 (National Biosciences Inc. (NBI)-Wojciech Rychlik, Cascade, Colo.). Primers were synthesized by Life Technologies (Grand Island, N.Y.) and probes were synthesized by Applied Biosystems. Primer/probe sets were designed from known sequences of rat genes to be analyzed. All target gene values were normalized to a reference gene, constitutively expressed cyclophilin. Primer/probe sets sequences can be found in Table 8
RNA was extracted from frozen (−70° C.) left ventricle (LV) tissue (approximately 10-20 mg) using 1.5 mL RNA-STAT 60 according to manufacturer's instructions (Leedo Medical Laboratories, Inc., Houston, Tex.). Briefly, tissues were homogenized using a tissue homogenizer equipped with a 5 mm probe (Ultra-Turrax T8 Homogenizer, IKA Works, Inc. Wilmington, N.C.). Following homogenization, an equal volume of molecular grade chloroform (Sigma Chemical Co., St. Louis, Mo.) was incubated with periodic mixing for 10 min at room temperature. Samples were centrifuged at 12,000 g for 10 min and RNA was precipitated from the top layer by adding an equal volume of molecular grade isopropanol (Sigma Chemical Co.) followed by an overnight incubation at −80° C.

[3] = test system: Osteopontin; experiment: Assay C: osteopontin mRNA in heart by TaqMan RT-PCR; type: in vivo, Male Sprague-Dawley rats; conditions: for Osteop-pontin mRNA (AU): relative to cyclophilin expression, mean ± SEM, eplerenone dose 100 mg/kg/day; for Osteopontin (AU): mRNA, individual rats, incl. rat marked * excluded from statistics
Protocol: as §1, §2, §3, §4
All primers and probes were designed using Primer Express software supplied with the 7700 Sequence Detection System and synthesized by Applied Biosystems. Standard curves using 5-fold dilutions of total RNA (from 200 ng to 320 pg) were performed to determine the efficiency of each primer/probe set in the TaqMan reaction prior to the analysis of the experimental samples. Primer/probe sets were designed from known sequences of rat genes to be analyzed. All target gene values were normalized to a reference gene, constitutively expressed cyclophilin. Primer/probe set sequences can be found in Table 8.
RNA was extracted from frozen (−80° C.) rat heart tissue using the Totally RNA Isolation Kit (Ambion, Inc., Austin, Tex.). Tissue was crushed using a stainless steel mortar and pestle, which had been chilled to −80° C. and transferred to a dounce homogenizer (Kontes, Vineland, N.J.) containing 3-10 mL cold denaturation buffer. Tissue was homogenized and transferred to a sterile, 15 mL polypropylene centrifuge tube. An equal volume of phenol:chloroform:isoamyl alcohol (25:24:1) was added, samples were shaken vigorously for 1 min, and incubated on ice for at least 15 min. Samples were centrifuged for 30 min at 10,000g. The aqueous phase was removed, 1/10 volume of a sodium acetate solution (3.0 M NaOAc pH 4.5) was added, samples were shaken or inverted for 10 seconds, and acid-phenol (premixed with isoamyl alcohol):chloroform (5:1, Ambion, Inc.) was added at an volume equivalent to the starting sample volume. Samples were shaken vigorously for 1 min, followed by a 15-min incubation on ice, and centrifuged for 30 min at 10,000 g. The aqueous phase removed and placed in a clean polypropylene tube. An equal volume of isopropanol (Sigma, St. Louis, Mo.) was added and the samples were mixed and incubated overnight at −20° C. The samples were centrifuged for 30 min at 10,000 g, the supernatant was removed and the RNA pellet was resuspended in DNAse/RNAse-free water. Samples were frozen at −80° C. for at least 2 hours, thawed on wet ice, and diluted for quantitation.

[4] = test system: osteopontin; experiment: Assay B: serum (circulating) osteopontin levels at 28 days; type: in vivo, Male Sprague Dawley rats; conditions: NaCl 1% drinking rats with aldosterone and eplerenone
Protocol: Assay B: In Vivo Aldosterone Infusion Model Male Sprague Dawley rats (n=39; BW=250 g) 2. Aldosterone (0.75 mg/hr, sc via alzet minipump) 2.

[5] = mean ± SEM after 7 days of treatment, eplerenone 100 mg/kg/day
[6] = mean ± SEM after 14 days of treatment, eplerenone 100 mg/kg/day

Compound: C[C@]12CCC(=O)C=C1CC[C@@H]1[C@@H]2[C@@H](O)C[C@]2(C=O)[C@@H](C(=O)CO)CC[C@@H]12 [Aldosterone]
- COX-2 mRNA expression increase ([1]; aldosterone/salt + vehicle vs control): 3 fold
- COX-2 relative mRNA expression ([1]; hearts of aldosterone/salt-treated rats, quantitative RT-PCR, eplerenone 100 mpk): 3.7±0.46
- ANP ([2]; 14-day protocol, mRNA, individual rats and group Mean, listed as Aldosterone + salt): 4.58 AU and 7.75 AU and 7.34 AU and 4.18 AU and 1.59 AU and 17.81 AU and 6.48 AU and 8.08 AU and 2.51 AU
- ANP ([2]; 14-day protocol, mRNA, individual rats and group Mean, listed as Aldosterone + salt, mean): 6.70 AU
- ANP ([2]; 30-day protocol, mRNA, individual rats and group Mean, listed as Aldosterone + salt): 23.59 AU and 43.11 AU and 14.83 AU (2×) and 18.90 AU and 23.43 AU and 15.14 AU and 6.77 AU and 20.97 AU
- ANP ([2]; 30-day protocol, mRNA, individual rats and group Mean, listed as Aldosterone + salt, group mean): 20.17 AU
- ANP mRNA levels ([2]; aldosterone + salt vs vehicle + salt (Tables 11-13)): Significant elevations
- ANP mRNA [2, 5]: 8.72 ± 1.51 AU
- ANP mRNA [2, 6]: 6.70 ± 1.59 AU
- ANP mRNA (AU) [2]: 20.17 ± 3.36 AU
- Osteop-pontin mRNA (AU) ([3]; after 7 days of treatment): 1.91 AU
- Osteopontin expression upregulation ([3]; after 14 days of aldosterone + salt treatment): ~6 fold
- Osteop-pontin mRNA (AU) ([3]; after 14 days of treatment): 6.56 AU
- Osteopontin expression upregulation ([3]; after 30 days of aldosterone + salt treatment): ~13 fold
- Osteop-pontin mRNA (AU) ([3]; after 30 days of treatment): 13.27 AU
- Osteopontin (AU) ([3]; data used for Table 17 (7-day protocol), listed as Aldosterone + salt): 1.84 AU and 0.84 AU and 0.95 AU and 1.05 AU and 1.08 AU and 4.92 AU and 3.29 AU and 1.32 AU and 28.64 AU
- Osteopontin (AU) ([3]; data used for Table 18 (14-day protocol), listed as Aldosterone + salt): 8.14 AU and 1.02 AU and 6.19 AU and 4.06 AU and 12.04 AU and 2.35 AU and 8.25 AU and 10.41 AU and 81.29 AU
- Osteopontin (AU) ([3]; data used for Table 19 (30-day protocol), listed as Aldosterone + salt): 13.13 AU and 11.43 AU and 13.78 AU and 7.97 AU and 18.44 AU and 14.88 AU

Compound: COC(=O)[C@@H]1CC2=CC(=O)CC[C@]2(C)[C@@]23O[C@@H]2C[C@@]2(C)[C@@H](CC[C@@]24CCC(=O)O4)[C@H]13 [Eplerenone]
- Circulating (serum) osteopontin levels [4]: marked decrease
- ANP ([2]; 14-day protocol, mRNA, individual rats and group Mean, listed as Eplerenone + aldosterone + salt): 2.84 AU and 3.22 AU and 6.39 AU and 4.04 AU and 25.90 AU and 5.52 AU and 3.57 AU and 2.29 AU and 8.37 AU and 4.24 AU
- ANP ([2]; 14-day protocol, mRNA, individual rats and group Mean, listed as Eplerenone + aldosterone + salt, mean): 6.64 AU
- ANP mRNA upregulation ([2]; after 14 days of treatment, eplerenone 100 mg/kg/day): not after 14 days
- ANP mRNA upregulation ([2]; after 30 days of treatment, eplerenone 100 mg/kg/day): significantly reduced
- ANP ([2]; individual rats and group mean, 7 days of treatment, mRNA relative to cyclophilin, aldosterone + salt, eplerenone 100 mg/kg/day): 1.26 AU and 1.81 AU and 0.59 AU and 2.58 AU and 4.48 AU and 4.98 AU and 3.82 AU and 3.59 AU and 0.95 AU and 3.67 AU
- ANP ([2]; individual rats and group mean, 7 days of treatment, mRNA relative to cyclophilin, aldosterone + salt, eplerenone 100 mg/kg/day, group mean): 2.77 AU
- ANP mRNA [2, 5]: 2.77 ± 0.49 AU
- ANP mRNA [2, 6]: 6.64 ± 2.22 AU
- ANP mRNA (AU) [2]: 9.20 ± 2.44 AU
- Osteop-pontin mRNA (AU) ([3]; after 7 days of treatment): 0.75 AU
- Osteop-pontin mRNA (AU) ([3]; after 14 days of treatment): 2.94 AU
- Osteop-pontin mRNA (AU) ([3]; after 30 days of treatment): 2.59 AU
- Osteopontin (AU) ([3]; data used for Table 17 (7-day protocol), listed as Eplerenone + aldosterone + salt): 0.54 AU and 1.24 AU and 0.52 AU and 0.27 AU and 0.60 AU and 1.13 AU and 0.96 AU and 0.75 AU
- Osteopontin (AU) ([3]; data used for Table 18 (14-day protocol), listed as Eplerenone + aldosterone + salt): 4.03 AU and 1.00 AU and 0.77 AU and 8.43 AU and 1.59 AU and 3.97 AU and 3.93 AU and 2.13 AU and 0.72 AU and 4.76 AU and 0.99 AU
- Osteopontin (AU) ([3]; data used for Table 19 (30-day protocol), listed as Eplerenone + aldosterone + salt): 1.53 AU and 3.28 AU and 1.98 AU and 8.91 AU and 1.88 AU and 1.97 AU and 1.28 AU and 1.43 AU and 1.01 AU and 54.57 AU
- Osteopontin mRNA expression ([3]; myocardium, aldosterone + salt, 7, 14, 30 days, eplerenone 100 mg/kg/day): inhibition; also recorded: significantly reduced
